Assay results published in patent US20070031507A1, “Bactericide for MRSA” (priority 2001, published 2007).

Test system: MRSA (methicillin resistant Staphylococcus aureus)
Test: Antibacterial test: survival ratio of MRSA versus cultivation time in medium
Assay type: cell-based
Details: physiological saline, dilution 10^-3, pH 12.7
Description: Antibacterial tests were then performed. The relation between the cultivation time (minute) of MRSA in a cultivation medium and the survival ratio (%) of the bacteria was measured in the test shown in Table 1. The cultivation media of MRSA were physiological saline ([…]), physiological saline containing the bactericide for MRSA of the invention ([…]) and physiological saline containing a reagent NaOH (medium 3). The degree of dilution of both the bactericide for MRSA and the reagent (NaOH) was 10^−3, and pH of both solutions was 12.7.

[Na+].[OH-] [Medium 3, NaOH]
survival ratio of the bacteria (cultivation time 0 minutes): 100% | survival ratio of the bacteria (cultivation time 15 minutes): Measurement was impossible | survival ratio of the bacteria (cultivation time 30 minutes): 0.0057%
